# Reference: patent US20060105013A1, “Osteopontin-coated surfaces and methods of use” (priority 2000, published 2006)
# What was measured:
# [1] = system: HOS cells; test: Attachment of HOS cells to Ti disks coated with rhOPN; format: cell-based, human; details: Ti disks coated with 50 μg of rhOPN; after 30 min; vs uncoated
# Description: HOS cells were labeled overnight with 10 uCi ^3H-thymidine, then dissociated from the plate with non-enzymatic dissociation solution (Sigma), washed 2 times with PBS, and counted. ^3H-thymidine incorporated into TCA insoluble material was determined for the cells. 5000 cells (cpm total 1000) were plated onto coated or uncoated titanium disks and the disks incubated at 37° C. for 30 min. Unadhered cells were removed, and attached cells were washed 3 times with 0.5 ml PBS. The cells were lysed with ice cold 20% TCA and the radioactivity in the TCA insoluble fraction was determined using the Scintillation counter (Begman 5000).
# 5000 cells (total cpm 1000) were plated on either coated or uncoated Ti disks and incubated at 37° C. in a humidified atmosphere (95% air 5% CO2). After 30 min, unattached cells were removed and the disks were washed with PBS. The total number of attached cells was determined for the total cpm released for the disks after the cells were lysed with 10% TCA and solubilized in 5 ml scintillation fluid. All measurements were done in triplicates and graphed as mean±Standard error of the mean.
# The initial events following seeding of cells onto Ti surfaces include the attachment, migration and proliferation of the seeded cells. Coating Ti disks with 50 μg of rhOPN enhanced by 1100% the attachment of HOS cells to Ti disks (FIG. 2), after 30 min.
# [2] = system: Haundel/Labrador dogs; test: In vivo histology of bone healing around rhOPN coated Ti implants in dogs; set-up: species or system dog; details: hollow screw Ti implants, dogs sacrificed after 4 and 8 weeks; vs uncoated
# Excerpt: Forty implants (5 per quadrant) were placed in four Haundel/Labrador dogs after extraction of four premolars (PM1-PM4) and one molar (M1), and a three month healing period. Eight hollow screw Ti implants were coated with rhOPN. Eight uncoated implants served as controls. The remaining implants were coated with 3 additional different molecules denoted as study 2, study 3, and study 4.
# Prior to implant placement, core samples from the donor place were taken to histologically analyze bone quality after extractions. This procedure, also ensured a hollow space for bone ingrowth inside the coated and uncoated implants. Dogs were sacrificed after 4 and 8 weeks.
# Implants were recovered for histological analysis. Each implant was sectioned vertically. The core inside the hallow implant was removed using liquid nitrogen. Decalcified sections were embedded in paraffin and stained using Herovichi's techniques to differentiate immature from mature collagen. Light microscopy at 4× and 40× magnifications were used to compare histological differences between rhOPN coated implants and uncoated implants.
# Uncoated implants show normal bone healing characterized by granulation tissue and a few areas of vascularization and matrix deposition after four weeks.
substance,measurement,setting,value
rhOPN: human recombinant phosphorylated form of osteopontin,enhancement of attachment of HOS cells to Ti disks,[1],1100%
same,bone healing around implants (histology),[2],enhanced bone healing
